{"source": "patent US20210228490A1", "about": "“STABLE PHARMACEUTICAL FORMULATION” (ORYZON GENOMICS, S.A., priority 2018, published 2021)", "experiment": "Chemical stability of the API alone and in presence of excipients", "assay_type": "physicochemical", "method": "Excipient selection/composition development was conducted in order to stabilize (trans)-N1-((1R,2S)-2-phenylcyclopropyl)cyclohexane-1,4-diamine in the final drug product to prevent its chemical degradation. (trans)-N1-((1R,2S)-2-phenylcyclopropyl)cyclohexane-1,4-diamine is very unstable in presence of excipients which are used to form a tablet composition. This is reflected by a decrease of the (trans)-N1-((1R,2S)-2-phenylcyclopropyl)cyclohexane-1,4-diamine content (assay) over time upon storage. The effect is more pronounced at elevated storage temperature.", "note": "Entries after “also recorded” stand apart in the source; their conditions may differ.", "data": [{"smiles": "N[C@H]1CC[C@H](N[C@@H]2C[C@H]2c2ccccc2)CC1", "note": "[(trans)-N1-((1R,2S)-2-phenylcyclopropyl)cyclohexane-1,4-diamine]", "values": [{"measurement": "chemical stability as an API", "setting": "API alone", "result": "chemically very stable"}, {"measurement": "stability in presence of excipients", "setting": "in presence of excipients which are used to form a tablet composition, more pronounced at elevated storage temperature", "result": "very unstable; also recorded: decompose in presence of many excipients"}]}]}
